The target of data set [1] is T1, hERG potassium channel (Homo sapiens, UniProt Q12809). Put plainly: radioligand competition binding, membranes. (Displacement assays read how much labelled ligand stays bound in the presence of the test substance.)
Data set [2] has as its target T1, hERG potassium channel. Put plainly: in vitro. To be noted: % inhibition.
The target in data set [3] is T1, hERG potassium channel. The data set is described as follows: biochemical. To be noted: hERG / IC50 (nM).
For data set [4], the target named is T1, hERG potassium channel. The data set is described as follows: biochemical. To be noted: hERG / Ki (nM), Synthesis=Enamine. For orientation: The hERG channel carries a current that helps repolarise heart muscle cells.

T1 sequence (Q12809 whole entry): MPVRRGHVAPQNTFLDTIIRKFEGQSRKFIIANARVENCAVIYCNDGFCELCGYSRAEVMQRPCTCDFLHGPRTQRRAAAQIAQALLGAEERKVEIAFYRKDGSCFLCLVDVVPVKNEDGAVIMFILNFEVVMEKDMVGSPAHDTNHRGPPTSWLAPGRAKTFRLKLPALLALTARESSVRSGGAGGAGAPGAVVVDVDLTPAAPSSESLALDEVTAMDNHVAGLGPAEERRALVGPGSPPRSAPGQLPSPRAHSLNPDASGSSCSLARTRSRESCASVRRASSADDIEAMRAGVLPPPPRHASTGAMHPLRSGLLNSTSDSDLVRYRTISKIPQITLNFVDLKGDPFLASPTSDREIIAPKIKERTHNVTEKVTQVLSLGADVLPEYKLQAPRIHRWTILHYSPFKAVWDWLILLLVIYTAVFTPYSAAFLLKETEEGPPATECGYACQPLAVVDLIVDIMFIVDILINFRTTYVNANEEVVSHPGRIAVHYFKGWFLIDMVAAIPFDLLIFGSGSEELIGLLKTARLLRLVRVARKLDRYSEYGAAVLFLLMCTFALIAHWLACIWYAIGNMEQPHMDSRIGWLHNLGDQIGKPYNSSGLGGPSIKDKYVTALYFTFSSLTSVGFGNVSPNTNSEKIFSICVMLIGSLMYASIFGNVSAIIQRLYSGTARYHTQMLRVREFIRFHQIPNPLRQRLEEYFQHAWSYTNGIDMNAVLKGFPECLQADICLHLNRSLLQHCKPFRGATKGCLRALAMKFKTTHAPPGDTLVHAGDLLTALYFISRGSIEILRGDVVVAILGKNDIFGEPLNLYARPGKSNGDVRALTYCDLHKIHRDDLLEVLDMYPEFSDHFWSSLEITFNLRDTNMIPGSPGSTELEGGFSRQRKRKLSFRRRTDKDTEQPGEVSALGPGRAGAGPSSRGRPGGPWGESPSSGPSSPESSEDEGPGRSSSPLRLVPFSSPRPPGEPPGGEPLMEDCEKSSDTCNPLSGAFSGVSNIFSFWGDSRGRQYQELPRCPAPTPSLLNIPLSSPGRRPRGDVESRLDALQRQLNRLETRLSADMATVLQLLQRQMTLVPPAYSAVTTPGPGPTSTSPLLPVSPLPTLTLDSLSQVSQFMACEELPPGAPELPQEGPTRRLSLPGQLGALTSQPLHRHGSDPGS

As for `CN(C)CCCn1nc(-c2ccc(F)cc2)c2ccccc2c1=O` [compound 1, s_49__14518112__1114614], the affinity in data set [1] corresponds to a Ki of 1490 nM.
The same measure, in the same setting: next, `CN(C)CCCn1nc(-c2cccs2)c2ccccc2c1=O` [compound 2, s_49__14518112__101877]: 946 nM; `CN(C)CCCn1nc(-c2ccc(Cl)cc2)c2ccccc2c1=O` [compound 3, s_49__14518112__88929]: 643 nM.
Take `CN(C)CCN(Cc1ccccc1)c1nc2cccc(F)c2s1` [compound 4, s_27__7100858__10689034]: the affinity in data set [1], expressed as Ki, was 1590 nM.
Take `CN(C)CCCc1nc2ccccc2n1Cc1ccccc1` [compound 5, GMD_18471]: in data set [1], the Ki (commonly a dissociation constant, usually derived from enzyme kinetics or from competition with a known ligand) was 400 nM. For the same molecule, in data set [2], the inhibition (commonly the percentage by which the read-out fell short of the control) at 10 µM was 88.9%. The IC50 (as a rule, the point on the concentration scale where inhibition reaches its midpoint) in data set [3] (Synthesis=NBI) was found to be 565 nM.
In data set [2], `CN(C)CCN(Cc1cccc(Cl)c1)c1nccc2cnccc12` [s_27____7100894____16733638] yielded an inhibition at 10 µM of 99.7%. Inhibition in data set [3] (Synthesis=Enamine) was half-maximal at 119 nM (IC50). In data set [4], this molecule had a Ki of 84 nM.
`CN(C)CCN(Cc1cccs1)c1nccc(F)c1Cl` [s_27____7100914____15703356] displayed an inhibition at 10 µM in data set [2] of 55.7%. In data set [3] (Synthesis=Enamine), this molecule had an IC50 of 7320 nM. The molecule further registered an inhibitory constant (Ki) in data set [4] of 5180 nM.
On the same counts, the results for `CN(C)CCN(Cc1cccs1)c1ccncc1Cl` [s_27____7100914____16711384] are 49.5%, 8570 nM and 6060 nM.
On the same counts, the results for `CN(C)CCCN(Cc1ccc(Cl)c(Cl)c1)c1ncc(Cl)cc1[N+](=O)[O-]` [s_27____7425384____7556080] are 78.8%, 1030 nM and 729 nM.
Taken in the same sequence, the figures for `CCc1csc(N(CCCN(C)C)Cc2ccc(Cl)c(Cl)c2)n1` [s_27____7425384____12641810] were 86.2%, 1070 nM and 757 nM.
In data set [2], `CSc1nccc(N(CCCN(C)C)Cc2ccc(Cl)c(Cl)c2)n1` [s_27____7425384____15607934] displayed an inhibition at 10 µM of 86.6%. Besides, the midpoint of inhibition in data set [3] (Synthesis=Enamine), the IC50, lay at 1090 nM. The same molecule displayed a Ki in data set [4] of 772 nM.
Taken in the same sequence, the figures for `CN(C)CCCN(Cc1ccc(Cl)c(Cl)c1)c1nccc2cccnc12` [s_27____7425384____16803680] were 96.3%, 91.8 nM and 64.9 nM.
Regarding `CN(C)CCn1c(-c2ccccc2Cl)nc2ccccc21` [s_60____1081314____90809], the inhibition at 10 µM in data set [2] came to 2.2%. For the same molecule, in data set [3] (Synthesis=Enamine), the IC50 was 7050 nM. The same molecule gave an inhibition constant Ki in data set [4] of 4990 nM.
Taken in the same sequence, the figures for `CN(C)CCN(Cc1ccccc1F)C(=O)c1csc2ccccc12` [s_527____7348186____205300] were 55.6%, 7040 nM and 4980 nM.
On the same counts, the results for `CN(C)CCN(Cc1ccccc1)Cc1nc2ccccc2n1C` [s_270004____10205888____7548808] are 75%, 1480 nM and 1050 nM.
Taken in the same sequence, the figures for `CN(C)CCN(Cc1ccccc1F)Cc1c(Cl)ccc2cccnc12` [s_270004____10205940____8625260] were 88.9%, 82.5 nM and 58.3 nM.
In turn, `CN(C)CCN(Cc1cccc(F)c1)Cc1c(Cl)ccc2cccnc12` [s_270004____10206024____8625260] had an inhibition at 10 µM in data set [2] of 97%. The molecule also yielded an IC50 in data set [3] (Synthesis=Enamine) of 156 nM. The same molecule registered a Ki in data set [4] of 110 nM.
Taken in the same sequence, the figures for `CN(C)CCN(Cc1ccccc1F)C(=O)N1CCCc2c(Cl)ccnc21` [s_272164____17323936____17325014] were 90.6%, 425 nM and 300 nM.

The values above are taken from publication doi:10.1101/2023.02.14.528391v1 (biorxiv, 2023).
